Experimental findings from patent US6552058B1, “Oxazolidinedione derivatives and their use” (Takeda Chemical Industries, Ltd., priority 1993, dated 2003) are described below.

Like-named read-outs stand apart in the source and are kept apart here.

One series has as its system KKA^y mice. In words: Hypoglycemic and hypolipidemic actions in mice (plasma glucose and triglyceride). Format: in vivo. The settings on record: Mus musculus, po, 96 h, reduction from control group, 0.005% in powdery feed for 4 days. An excerpt:
Hypoglycemic and Hypolipidemic Actions in Mice
A test compound mixed in a powdery feed (CE-2, Japan Clea) at a rate of 0.005% was fed to KKA^y mice (9-14 week old) freely for 4 days. During the period, the animals had free access to water. Blood was collected from the orbital venous plexus. Using the plasma, glucose and triglyceride were enzymatically determined quantitatively by using Iatrochem-GLU(A) and Iatro-MA701 TG kit (latron Inc.). The respective values are percents reduction (%) found in drug-dosed groups from the control group not receiving the test compound, which are shown in [Table 1].

[1] abbreviates: plasma glucose, read-out: Hypoglycemic Action % reduction.
[2] abbreviates: plasma triglyceride, read-out: Hypolipidemic Action % reduction.

One may read the melting point as the temperature, or range, at which the solid turns liquid.

In turn, `Cc1cccc(-c2nc(CCOc3ccc(C=CC=C4OC(=O)NC4=O)cc3)c(C)o2)c1` [Example 1, 5-[4-[2-[5-methyl-2-(3-methylphenyl)-4-oxazolyl]ethoxy]cinnamylidene]-2,4-oxazolidinedione] came in with a melting point of 213 to 214 °C.

`Cc1oc(-c2ccccc2)nc1Cc1cc2cc(C=CC=C3OC(=O)NC3=O)ccc2o1` [Example 14, 5-[3-[2-(5-methyl-2-phenyl-4-oxazolylmethyl)benzofuran-5-yl]-2-propenylidene]-2,4-oxazolidinedione] came in with a melting point of 237 to 239 °C.

The compound `Cc1oc(-c2ccccc2)nc1CCOc1ccc(C=CC=CC=C2OC(=O)NC2=O)cc1` [Example 15, 5-[5-[4-[2-(5-methyl-2-phenyl-4-oxazolyl)ethoxy]phenyl]-2,4-pentadienylidene]-2,4-oxazolidinedione] showed a melting point of 209 to 211 °C.

The compound `Cc1cccc(-c2nc(CCOc3ccc(CCCC4OC(=O)NC4=O)cc3)c(C)o2)c1` (stereo not drawn) [Example 16, 5-[3-[4-[2-[5-methyl-2-(3-methylphenyl)-4-oxazolyl]ethoxy]phenyl]propyl]-2,4-oxazolidinedione] gave a melting point of 149 to 150 °C.

`Cc1oc(-c2ccccc2)nc1CCOc1ccc(CCCC2OC(=O)NC2=O)cn1` (stereo not drawn) [Example 23, 5-[3-[2-[2-(5-methyl-2-phenyl-4-oxazolyl)ethoxy]-5-pyridyl]propyl]-2,4-oxazolidinedione] had a melting point of 169 to 171 °C. Also, the inhibition in vivo at 0.005 % in diet in the series on KKA^y mice (setting [1]) came out at 39%. The inhibition in vivo at 0.005 % in diet in the series with KKA^y mice (setting [2]) was 33%.

In the case of `Cc1oc(-c2ccccc2)nc1CCOc1ccc(CCC2OC(=O)NC2=O)cc1` (stereo not drawn) [Example 24, 5-[2-[4-[2-(5-methyl-2-phenyl-4-oxazolyl)ethoxy]phenyl]ethyl]-2,4-oxazolidinedione], the melting point was in the range of 193 to 194 °C. In addition, the inhibition in vivo at 0.005 % in diet with KKA^y mice (setting [1]) worked out at 56%. Also, in the series on KKA^y mice (setting [2]), the inhibition in vivo at 0.005 % in diet was found to be 53%.

Consider `Cc1oc(-c2ccccc2)nc1Cc1cc2cc(CCCC3OC(=O)NC3=O)ccc2o1` (stereo not drawn) [Example 30, 5-[3-[2-(5-methyl-2-phenyl-4-oxazolylmethyl)benzofuran-5-yl]propyl]-2,4-oxazolidinedione], for which the melting point lay in the range of 184 to 185 °C. The inhibition in vivo at 0.005 % in diet in the series with KKA^y mice (setting [1]) is 57%. Also, the inhibition in vivo at 0.005 % in diet in the series with KKA^y mice (setting [2]) was determined as 70%.

Consider `Cc1oc(-c2ccccc2)nc1CCOc1ccc(CCCCCC2OC(=O)NC2=O)cc1` (stereo not drawn) [Example 31, 5-[5-[4-[2-(5-methyl-2-phenyl-4-oxazolyl)ethoxy]phenyl]pentyl]-2,4-oxazolidinedione], for which the melting point fell in the range of 157 to 158 °C.

For `Cc1oc(-c2ccccc2)nc1COc1ccc(CCC2OC(=O)NC2=O)cc1` (stereo not drawn) [Example 32, 5-[2-[4-(5-methyl-2-phenyl-4-oxazolylmethoxy)phenyl]ethyl]-2,4-oxazolidinedione], the inhibition in vivo at 0.005 % in diet in the series with KKA^y mice (setting [1]) was 63%; in the series with KKA^y mice (setting [2]), 60%.

In turn, `Cc1oc(-c2ccccc2)nc1COc1ccc(CCCCCC2OC(=O)NC2=O)cc1` (stereo not drawn) [Example 33, 5-[5-[4-(5-methyl-2-phenyl-4-oxazolylmethoxy)phenyl]pentyl]-2,4-oxazolidinedione] gave a melting point of 120 to 121 °C. Moreover, in the series with KKA^y mice (setting [1]), the inhibition in vivo at 0.005 % in diet is 45%. For the same compound, the inhibition in vivo at 0.005 % in diet with KKA^y mice (setting [2]) is 59%.

As to `Cc1oc(-c2ccccc2)nc1COc1ccc(CCCCC2OC(=O)NC2=O)cc1` (stereo not drawn) [Example 34, 5-[4-[4-(5-methyl-2-phenyl-4-oxazolylmethoxy)phenyl]butyl]-2,4-oxazolidinedione], the melting point was 186 to 187 °C. The inhibition in vivo at 0.005 % in diet in the series with KKA^y mice (setting [1]) turned out to be 43%. Moreover, the inhibition in vivo at 0.005 % in diet with KKA^y mice (setting [2]) amounted to 51%.

`Cc1oc(-c2ccccc2)nc1C(=O)COc1ccc(CCCC2OC(=O)NC2=O)cc1` (stereo not drawn) [Example 35, 5-[3-[4-[2-(5-methyl-2-phenyl-4-oxazolyl)-2-oxoethoxy]phenyl]propyl]-2,4-oxazolidinedione]: the inhibition in vivo at 0.005 % in diet amounted to 42% with KKA^y mice (setting [1]) and 32% in the series with KKA^y mice (setting [2]).

As for `Cc1oc(-c2ccccc2)nc1C(O)COc1ccc(CCCC2OC(=O)NC2=O)cc1` (stereo not drawn) [Example 36, 5-[3-[4-[2-hydroxy-2-(5-methyl-2-phenyl-4-oxazolyl)ethoxy]phenyl]propyl]-2,4-oxazolidinedione], the melting point was in the range of 146 to 147 °C. Further, the inhibition in vivo at 0.005 % in diet in the series on KKA^y mice (setting [1]) was 56%. Further, the inhibition in vivo at 0.005 % in diet with KKA^y mice (setting [2]) was determined as 48%.

Turning to `Cc1oc(-c2ccccc2)nc1COc1ccc(CCCC2OC(=O)NC2=O)cn1` (stereo not drawn) [Example 52, 5-[3-[2-(5-methyl-2-phenyl-4-oxazolylmethoxy)-5-pyridyl]propyl]-2,4-oxazolidinedione], the inhibition in vivo at 0.005 % in diet was found to be 54% in the series on KKA^y mice (setting [1]) and 82% in the series with KKA^y mice (setting [2]).

In the case of `Cc1oc(-c2ccccc2)nc1COc1cccc(CCCC2OC(=O)NC2=O)c1` (stereo not drawn) [Example 56, 5-[3-[3-(5-methyl-2-phenyl-4-oxazolylmethoxy)phenyl]propyl]-2,4-oxazolidinedione], the inhibition in vivo at 0.005 % in diet in the series on KKA^y mice (setting [1]) amounted to 32%; in the series with KKA^y mice (setting [2]), 24%.

As to `Cc1oc(-c2ccccc2)nc1COc1ccc(C(C)CCC2OC(=O)NC2=O)cc1` (stereo not drawn) [Example 60, 5-[3-[4-(5-methyl-2-phenyl-4-oxazolylmethoxy)phenyl]butyl]-2,4-oxazolidinedione], the inhibition in vivo at 0.005 % in diet in the series on KKA^y mice (setting [1]) was found to be 54%; in the series with KKA^y mice (setting [2]), 77%.
